Test system: mugineic acid-Fe complex transporter HvYS1
Assay: Iron uptake activity: electrophysiological measurement of intracellular uptake of mugineic acid-Fe complex in oocytes expressing the transporter
Assay type: cell-based, barley
Details: substrate-Fe complex final concentration 50 μM; African clawed frog oocytes expressing HvYS1; natural mugineic acid set to 100%; FIG. 1
From the text: Concerning the S isomer (natural form) and R isomer of 2′-OH obtained in Example 12, 2′-deoxy isomer obtained in Example 9, and mugineic acid purified from barley by the method described in “Takagi, S. et al., Journal of Plant Nutrition, 1984, 7th volume, p 469-477”, it was verified that the intracellular uptake of iron complex thereof actually takes place via the mugineic acid-Fe complex transporter. According to the method described in “Murata, Y. et al., Plant Journal (Plant J), 2006, 46th volume, p. 563-572.”, the gene HvYS1 gene which codes the mugineic acid-Fe complex transporter of barley (Plant J. 2006, vol. 46, 563-572) was introduced into the oocytes of the African clawed frog. […] The intracellular uptake of mugineic acid-Fe complex was measured using Oocyte clamp OC-725C (Warner Instrument) by the detection of electrochemical signal. More specifically, the oocyte which expressed the mugineic acid-Fe complex transporter HvYS1 was set to the chamber filled with ND-96 solution, 10 μl of a 5 mM substrate-Fe complex solution (final concentration 50 μM) was sprinkled on the oocyte and the electrical physiological activity was measured. The oocyte was plugged with 2 microelectrodes filled with 3M KCl, and with the mode in which the electric potential of the experimental tank was fixed at 0 V, the current value changing at a fixed electrical potential, […], was measured. […]

## O=C(O)[C@@H](NCC[C@H](O)C(=O)O)[C@@H](O)CN1CC[C@H]1C(=O)O [natural mugineic acid, mugineic acid]
  size of the current value (electrical physiological activity), relative value to natural mugineic acid: 100%

— US20100256395A1, “EFFICIENT METHOD FOR PRODUCING MUGINEIC ACIDS” (SUNTORY HOLDINGS LIMITED, priority 2006, published 2010)
